Laboratory results reported in patent publication US20220372031A1, “NOVEL TRICYCLIC AROMATIC HETEROCYCLIC COMPOUND, PREPARATION METHOD THEREFOR, PHARMACEUTICAL COMPOSITION AND APPLICATION THEREOF” (SHANGHAI LONGWOOD BIOPHARMACEUTICALS CO., LTD., priority 2019, published 2022).

Molecular target: T1, PD-1/PD-L1 (Homo sapiens, UniProt Q9NZQ7)
T1 construct: Recombinant human PD-L1 protein (19-238) with a His-tagged at the C-terminus; purchased AcroBiosystems PD1-H5229 (PD-L1); PD1-H5257 (PD-1)
Assay: PD-1/PD-L1 homogeneous time-resolved fluorescence (HTRF) binding assay
Details: PD-1/PD-L1 HTRF binding, ~3 nM PD1, 10 nM PD-L1, 25° C., PBS pH 7.4
Method: Assays were performed in standard black 384-well polystyrene plates and a final volume was 20 μL. The inhibitor was first serially diluted with DMSO and added to the wells of the plate, followed by the addition of other reaction components. The final concentration of DMSO in the assay was 1%. Assays were performed at 25° C. in PBS buffer (pH 7.4) containing 0.05% Tween-20 and 0.1% BSA. Recombinant human PD-L1 protein (19-238) with a His-tagged at the C-terminus was purchased from AcroBiosystems (PD1-H5229). Recombinant human PD-1 protein (25-167) with an Fc tag at the C-terminus was also purchased from AcroBiosystems (PD1-H5257). The PD-L1 and PD-1 proteins were diluted in assay buffer and then […] of the solution was extracted and added to the wells of the plate. Plates were centrifuged and proteins and inhibitors were preincubated for 40 minutes. After incubation, 0.1 μl of HTRF detection buffer containing europium […] labeled anti-human IgG (PerkinElmer-AD0212), Fc-specific and anti-His SureLight®-Allophycocyanin (APC, PerkinElmer-AD0059H) conjugated antibodies was added. After centrifugation, the plates were incubated at 25° C. for 60 minutes. Data was read in a PHERAstar FS plate reader (665 nm/620 nm ratio). Final concentrations in the assay were ˜3 nM PD1, 10 nM PD-L1, 1 nM europium anti-human IgG, and 20 nM anti-His-allophycocyanin. Activity data were fitted using GraphPad Prism 5_0 software to derive IC50 values for inhibitors.

T1 sequence (Q9NZQ7 19-238): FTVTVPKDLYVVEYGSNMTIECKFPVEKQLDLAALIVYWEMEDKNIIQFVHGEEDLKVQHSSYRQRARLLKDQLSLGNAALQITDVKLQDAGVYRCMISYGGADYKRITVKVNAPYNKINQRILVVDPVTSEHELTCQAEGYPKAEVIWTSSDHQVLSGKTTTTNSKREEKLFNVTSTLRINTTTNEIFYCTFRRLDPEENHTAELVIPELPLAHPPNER

An IC50 of no more than 10 nM was found for `Cc1c(Nc2nccc3cc(CN4CC[C@@H](O)C4)cnc23)cccc1-c1cccc(-c2cc3cc4c(c(C#N)c3o2)CCC4N2CC[C@@H](O)C2)c1C` (stereo partly shown) [Compound 020] in this work.
An IC50 of no more than 10 nM was found for `COc1nc(-c2cccc(-c3cccc(-c4nc5cc6c(c(C#N)c5o4)CC[C@H]6N4CC[C@@H](C(=O)NS(=O)(=O)C5CC5)C4)c3Cl)c2Cl)cnc1CN1CC[C@@H](O)C1` [Compound 037] in this work.
An IC50 of no more than 10 nM was found for `COc1nc(-c2cccc(-c3cccc(-c4nc5cc6c(c(C#N)c5o4)CC[C@H]6NCCC(=O)O)c3Cl)c2Cl)cnc1CN1CC[C@@H](O)C1` [Compound 039] in this work.
An IC50 of no more than 10 nM was found for `Cc1c(Nc2nccc3cc(CN4CC[C@@H](O)C4)cnc23)cccc1-c1cccc(-c2cc3cc4c(c(C#N)c3o2)CCCC4N2CC[C@@H](C(=O)O)C2)c1C` (stereo partly shown) [Compound 017] in this work.
An IC50 of no more than 10 nM was found for `Cc1c(Nc2nccc3cc(CN4CC[C@@H](O)C4)cnc23)cccc1-c1cccc(-c2cc3cc4c(c(C#N)c3o2)CCCC4N2CC[C@@H](O)C2)c1C` (stereo partly shown) [Compound 019] in this work.
An IC50 of no more than 10 nM was found for `Cc1c(Nc2nccc3cc(CNC[C@@H]4CCC(=O)N4)cnc23)cccc1-c1cccc(-c2cc3cc4c(c(C#N)c3o2)CC[C@H]4N2CC[C@@H](C(=O)O)C2)c1Cl` [Compound 274] in this work.
An IC50 of no more than 10 nM was found for `N#Cc1c2c(cc3cc(-c4cccc(-c5cccc(Nc6nccc7cc(CN8CC[C@@H](O)C8)cnc67)c5Cl)c4Cl)oc13)C(N1CC[C@@H](C(=O)O)C1)CC2` (stereo partly shown) [Compound 021] in this work.
An IC50 of no more than 10 nM was found for `COc1nc(-c2cccc(-c3cccc(-c4cc5cc6c(c(C#N)c5o4)CC[C@H]6N4CC[C@@H](C(=O)NS(=O)(=O)C5(C)CC5)C4)c3C)c2C)cnc1CN1CC[C@@H](O)C1` [Compound 264] in this work.
An IC50 of no more than 10 nM was found for `N#Cc1c2c(cc3nc(-c4cccc(-c5cccc(Nc6nccc7cc(CN8CC[C@@H](O)C8)cnc67)c5Cl)c4Cl)oc13)[C@H](N1CC[C@@H](C(=O)O)C1)CC2` [Compound 030] in this work.
An IC50 of no more than 10 nM was found for `Cc1c(Nc2nccc3cc(CN4CC[C@@H](O)C4)cnc23)cccc1-c1cccc(-c2cc3cc4c(c(C#N)c3o2)CC[C@@H]4N)c1C` [Compound 022] in this work.
An IC50 of no more than 10 nM was found for `COc1nc(-c2cccc(-c3cccc(-c4nc5cc6c(c(C#N)c5o4)CC[C@@H]6NCCC(=O)O)c3Cl)c2Cl)cnc1CN1CC[C@@H](O)C1` [Compound 038] in this work.
An IC50 of no more than 10 nM was found for `Cc1c(-c2cc3cc4c(c(C#N)c3o2)CC[C@H]4N2CC[C@@H](C(=O)O)C2)cccc1-c1cccc(Nc2nccc3cc(CN4CC[C@@H](O)C4)cnc23)c1Cl` [Compound 247] in this work.
An IC50 of no more than 10 nM was found for `COc1nc(-c2cccc(-c3cccc(-c4cc5cc6c(c(C#N)c5o4)CC[C@H]6N4CC[C@@H](C(=O)O)C4)c3C)c2Cl)cnc1CN1CC[C@@H](O)C1` [Compound 259] in this work.
An IC50 of no more than 10 nM was found for `Cc1c(-c2nc3cc4c(c(C#N)c3o2)CC[C@H]4N2CC[C@@H](C(=O)NS(=O)(=O)C3(C)CC3)C2)cccc1-c1cccc(Nc2nccc3cc(CN4CC[C@@H](O)C4)cnc23)c1Cl` [Compound 242] in this work.
An IC50 of no more than 10 nM was found for `N#Cc1c2c(cc3nc(-c4cccc(-c5cccc(Nc6nccc7cc(CN8CC[C@@H](O)C8)cnc67)c5Cl)c4Cl)oc13)[C@H](NCCC(=O)O)CC2` [Compound 031] in this work.
An IC50 of no more than 10 nM was found for `Cc1c(Nc2nccc3cc(CN4CC[C@@H](O)C4)cnc23)cccc1-c1cccc(-c2cc3cc4c(c(C#N)c3o2)CC[C@H]4N2CC[C@@H](C(=O)O)C2)c1C` [Compound 244] in this work.
An IC50 of no more than 10 nM was found for `Cc1c(-c2nc3cc4c(c(C#N)c3o2)CC[C@H]4N2CC[C@@H](C(=O)O)C2)cccc1-c1cccc(Nc2nc(C(F)F)nc3cc(CN4CC[C@@H](O)C4)cnc23)c1Cl` [Compound 081] in this work.
An IC50 of no more than 10 nM was found for `Cc1c(Nc2nccc3cc(CN4CC[C@@H](O)C4)cnc23)cccc1-c1cccc(-c2nc3cc4c(c(C#N)c3o2)CCC4N2CC[C@@H](C(=O)O)C2)c1Cl` (stereo partly shown) [Compound 026] in this work.
An IC50 of no more than 10 nM was found for `Cc1c(Nc2nccc3cc(CN4CC[C@@H](O)C4)cnc23)cccc1-c1cccc(-c2nc3cc4c(c(C#N)c3o2)CC[C@H]4N2CC[C@@H](C(=O)NS(=O)(=O)C3(C)CC3)C2)c1C` [Compound 239] in this work.
